Assay results: patent publication US5236928A, “Imidazole derivatives bearing acidic functional groups at the 5-position, their compositions and methods of use as angiotensin II antagonists” (Merck & Co., Inc., priority 1992, dated 1993)

Test system: BALB 3T3/H-ras
Assay: BALB 3T3/H-ras inhibition activity
Type: cell-based

CC(C)C(C)CC[C@@H](C)C1CCN=C2C3=C(CC[C@@]21C)[C@@]1(C)CC[C@H](O)CC1CC3 (stereo partly shown) [UCA1064-B]
BALB 3T3/H-ras Inhibition Activity IC50: 3.5 µg/mL
